From patent US20070010541A1, “Methods for treating vascular diseases” (The General Hospital Corporation, priority 2003, published 2007)

Columns and labels:
grl−/− embryos = experiment: Whole-organism chemical suppressor screen: suppression of the gridlock phenotype, circulation to the tail; assay type: in vivo, zebrafish; conditions: for suppression of the gridlock phenotype (restoring circulation to the tail): grl−/− embryos in 96-well plates, circulation examined after 48 hours of development
Protocol: We arrayed grl−/− embryos in 96-well plates, exposed them to small molecules from a structurally-diverse chemical library, and examined their circulation after 48 hours of development. The compounds were purchased as 5 mg/mL stock solutions in DMSO from Cambridge Chemical.
Two of 5,000 small molecules examined suppress the gridlock phenotype in grl−/− embryos, restoring circulation to the tail (FIG. 1B). We confirmed the functional restoration of the aorta by microangiography (FIGS. 1A-B) and histology (FIGS. 1E-F).
Angioblasts in zebrafish are first evident around 14 hours postfertilization (hpf) and begin to aggregate at the midline by 16 hpf (Eriksson et al., J. Morphol. 244(3):167-176, 2000; Fouquet et al., Dev. Biol. 183(1):37-48, 1997). The lumen of the aorta begins to form in the posterior trunk at 17.5 hpf, but is not complete until just prior to the initiation of circulation 24 hpf. The critical period for gs4012 suppression is between 12 and 24 hpf (FIG. 2A).
Similarly, when gs4012 is added during gastrulation and washed away at later and later timepoints, the effectiveness of suppression is increased, reaching maximal suppression by […].

VEGF = experiment: Real-time PCR quantitation of gene expression after gs4012 exposure; assay type: in vivo, zebrafish; conditions: 24 hpf
Protocol: In the case of real-time PCR, groups of 20 grl−/− embryos are left untreated or treated with a gridlock suppressor. At 24 hours post fertilization, total RNA can be extracted using the Trizol method. Equivalent amounts of total RNA from each sample can be reverse transcribed into cDNA. This cDNA can serve as template for real-time PCR to determine the relative expression quantities for the genes listed above. RT-PCR can be performed with an Applied Biosystems Sequence Detection System 7000. Taqman probes and primers can be designed using zebrafish genomic sequences made publicly available by the Wellcome Trust Sanger Institute.
We used real-time PCR to quantitate the expression of several genes believed to play roles in angioblast cell fate determination or migration. […] VEGF plays an important role in formation of the aorta. VEGF122 expression in the Xenopus hypochord acts as a chemoattractant, stimulating angioblast migration to the midline prior to aorta formation (Cleaver et al., Development 125(19):3905-3914, 1998). […]

Structure (SMILES)	suppression of the gridlock phenotype (restoring circulation to the tail) (grl−/− embryos)	time at which maximal suppression is reached (grl−/− embryos; added during gastrulation and washed away at later timepoints) [hpf]	reversibility of suppression after removal of the suppressor (grl−/− embryos; after removal of suppressor)	viability of rescued mutants (grl−/− embryos; after removal of suppressor)	relative potency as gridlock suppressor (grl−/− embryos; grl−/− embryos, dose response)	suppression when treatment begins after 24 hpf (grl−/− embryos; treatment begins after 24 hpf)	VEGF expression (VEGF)
O=[N+]([O-])c1ccc(SCCc2ccncc2)cc1 [gs3999]	identified as gridlock suppressors						
COc1ccc(SCCc2ccncc2)cc1 [gs4012]	identified as gridlock suppressors	≤ 30	suppression is irreversible	remain viable to adulthood	more potent suppressor than gs3999	Little or no suppression	upregulated
